# Source: paper PMC9823088, “The oral selective estrogen receptor degrader GDC-0810 (ARN-810) in postmenopausal women with hormone receptor-positive HER2-negative (HR + /HER2 −) advanced/metastatic breast cancer” (Breast Cancer Research and Treatment, 2022)
# Legend:
# ERα = system: ERα; design: method as in PMID 27410477; conditions: MCF-7 breast cancer cell; cited from earlier work
# [1] = Plasma pharmacokinetics of GDC-0810 and glucuronide metabolites; assay type: in vivo, human
# Experimental: (§1) Blood samples were collected for pharmacokinetic assessments. Tumor assessments were performed at screening and every 8 weeks from cycle 1, day 1 (C1D1). Radiographic assessment of objective tumor response or disease progression was based on Response Evaluation Criteria in Solid Tumors (RECIST v1.1). Transvaginal ultrasound scans were performed to monitor endometrial thickness at screening, at every 6 months from C1D1, and at the end of treatment. Imaging with [^18F]-fluoroestradiol positron emission tomography (FES-PET) was performed to quantify ER expression in tumors and to assess for pharmacodynamic response. Further assessment details are provided in Supplementary Methods.
# CYP2B6 and CYP2C enzymes. […]
# Blood samples were collected for pharmacokinetic assessment on lead-in day −7 and cycle 2 day 1 (C2D1) at predose (0 hour) and postdose (0.5, 1, 1.5, 2, 3, 4, 6, 8, and 24 hours), (plus at 48 hours postdose for day−7). Full plasma pharmacokinetic profiles were obtained for GDC-0810 and its glucuronide metabolites (acyl-glucuronide and N-glucuronide) using a validated liquid chromatography/ tandem mass spectrometry method, and analyzed using non-compartmental methods for all patients in the dose escalation cohorts.
# Tumor assessments were performed at screening and every 8 weeks from cycle-1, day-1 […]
# [2] = system: ER + (HER2 −) locally advanced or metastatic breast cancer; test: Anti-tumor activity per RECIST v1.1 (best confirmed overall outcome, clinical benefit rate, progression-free survival), phase Ia/Ib/IIa study; assay type: in vivo, human
# From the text: This was a multi-institutional phase Ia/Ib/IIa, open-label, dose finding, safety, pharmacokinetics, and proof-of-concept study of GDC-0810 in women with ER + metastatic breast cancer. Phase Ia employed a standard 3 + 3 dose-escalation scheme. Phase Ib was dose escalation as part of combination treatment. Phase IIa explored the recommended phase 2 dose (RP2D) from phase Ia. The protocol was approved by institutional review boards (IRBs) at participating institutions. Written informed consent was obtained from patients prior to performing any procedures; the study was conducted in accordance with the principles of the Declaration of Helsinki and Good Clinical Practice.
# as §1
# Analyses of safety, pharmacokinetics, anti-tumor activity, and data from the FES-PET imaging correlative studies were planned. Confirmatory inferential analyses and imputation for missing data were not planned due to the exploratory nature of this study. Descriptive statistics were used to summarize patient data. The number of patients to be enrolled was dependent upon the observed safety and pharmacokinetic profile during dose escalations. The safety- and efficacy-evaluable population included patients who received at least one dose of the study drug. Safety was assessed through summaries of DLTs, AEs, changes in select laboratory test results, vital signs, ECGs, and changes in endometrial thickness. Objective response (with confirmation) and clinical benefit rates (CBR) were derived per RECIST v1.1 and summarized by dose level and cohort.
# CYP2B6 and CYP2C enzymes. No hormonal therapy, chemotherapy, immunotherapy, or experimental anti-cancer medications were permitted during the study. […]
# Tumor assessments were performed at screening and every 8 weeks from cycle-1, day-1 (C1D1). Radiographic assessment of objective tumor response or disease progression was based on Response Evaluation Criteria in Solid Tumors (RECIST v1.1). Transvaginal ultrasound scans were performed to monitor endometrial thickness at screening, at every 6 months from C1D1, and at the end of treatment. […]
# [3] = all patients, phase IIa A1, 600 mg QD, n = 19
# [4] = all patients, phase IIa A2, 600 mg QD, n = 10
# [5] = all patients, phase IIa B1, 600 mg QD, n = 53
# [6] = all patients, phase IIa B2, 600 mg QD, n = 19
# [7] = all patients, phase Ia cohorts 1–9, 100–800-mg BID, 300–400-mg QD, n = 41
# [8] = all patients, phase Ib C1, 400 mg QD + PALBO, n = 4
# [9] = all patients, phase Ib D1, 600 mg QD + LHRH-A, n = 6
# [10] = overall, 3 study phases (152 patients)
# [11] = patients (n = 77) with tumors harboring ESR1 mutations
# [12] = patients with tumors harboring ESR1 mutations
# [13] = tumors harboring ESR1 mutations, phase IIa A1, 600 mg QD, n = 19
# [14] = tumors harboring ESR1 mutations, phase IIa A2, 600 mg QD, n = 9
# [15] = tumors harboring ESR1 mutations, phase IIa B1, 600 mg QD, n = 20
# [16] = tumors harboring ESR1 mutations, phase IIa B2, 600 mg QD, n = 4
# [17] = tumors harboring ESR1 mutations, phase Ia cohorts 1–9, 100–800-mg BID, 300–400-mg QD, n = 23
# [18] = tumors harboring ESR1 mutations, phase Ib D1, 600 mg QD + LHRH-A, n = 2
smiles,measurement,setting,value
CC/C(=C(/c1ccc(/C=C/C(=O)O)cc1)c1ccc2[nH]ncc2c1)c1ccc(F)cc1Cl [GDC-0810],proteasomal degradation of ERα,ERα,induced proteasomal degradation of ERα
same,response of ER to estrogens,ERα,fully antagonized
same,"average exposure at steady state (AUC0-24 h), non-fasted compared to fasted",[1]; 600 mg QD,1.5 fold
same,"average exposure at steady state (Cmax), non-fasted compared to fasted",[1]; 600 mg QD,twofold
same,drug accumulation,[1]; following multiple dosing,Minimal drug accumulation
same,half-life,"[1]; human, plasma, oral, 600-mg QD, non-fasted condition, read-out: mean terminal half-life (converted)",~8 h
same,Tmax,"[1]; human, plasma, oral, after dosing, read-out: median Tmax",1 to 3 h
same,pharmacokinetic profile,[1]; up to 600 mg,linear and dose proportional
same,CBR,[2]; 17 patients in phase Ia previously treated with fulvestrant,35%
same,median time to event (median PFS),[2]; 54 patients in study phases Ib/IIa with tumors harboring ESR1 mutations,3.5 months
same,median time to event (median PFS),[2]; 111 patients in study phases Ib/IIa,3.5 months
same,Missing or unevaluable,[2]; [3],1 (5%) n (%)
same,Non-complete response/non-progressive disease,[2]; [3],5 (26%) n (%)
same,Partial response,[2]; [3],0 n (%)
same,Progressive disease,[2]; [3],9 (47%) n (%)
same,Stable disease,[2]; [3],4 (21%) n (%)
same,Missing or unevaluable,[2]; [4],2 (20%) n (%)
same,Non-complete response/non-progressive disease,[2]; [4],0 n (%)
same,Partial response,[2]; [4],0 n (%)
same,Progressive disease,[2]; [4],4 (40%) n (%)
same,Stable disease,[2]; [4],4 (40%) n (%)
same,Missing or unevaluable,[2]; [5],3 (6%) n (%)
same,Non-complete response/non-progressive disease,[2]; [5],8 (15%) n (%)
same,Partial response,[2]; [5],4 (8%) n (%)
same,Progressive disease,[2]; [5],21 (40%) n (%)
same,Stable disease,[2]; [5],17 (32%) n (%)
same,Missing or unevaluable,[2]; [6],0 n (%)
same,Non-complete response/non-progressive disease,[2]; [6],4 (21%) n (%)
same,Partial response,[2]; [6],0 n (%)
same,Progressive disease,[2]; [6],11 (58%) n (%)
same,Stable disease,[2]; [6],4 (21%) n (%)
same,Non-complete response/non-progressive disease,[2]; [7],0 n (%)
same,Partial response,[2]; [7],2 (5%) n (%)
same,Progressive disease,[2]; [7],12 (29%) n (%)
same,Stable disease,[2]; [7],26 (63%) n (%)
same,Missing or unevaluable,[2]; [8],0 n (%)
same,Non-complete response/non-progressive disease,[2]; [8],1 (25%) n (%)
same,Partial response,[2]; [8],0 n (%)
same,Progressive disease,[2]; [8],1 (25%) n (%)
same,Stable disease,[2]; [8],2 (50%) n (%)
same,Missing or unevaluable,[2]; [9],0 n (%)
same,Non-complete response/non-progressive disease,[2]; [9],1 (17%) n (%)
same,Partial response,[2]; [9],0 n (%)
same,Progressive disease,[2]; [9],3 (50%) n (%)
same,Stable disease,[2]; [9],2 (33%) n (%)
same,Progressive disease,[2]; overall population,40%
same,Stable disease,[2]; overall population,39%
same,missing/unevaluable,[2]; overall population,5%
same,non-complete response/non-progressive disease,[2]; overall population,13%
same,partial responses,[2]; overall population,4%
same,Progressive disease,[2]; [10],61 (40%) n (%)
same,Stable disease,[2]; [10],59 (39%) n (%)
same,non-complete response/non-progressive disease,[2]; [10],19 (13%) n (%)
same,partial responses,[2]; [10],6 (4%) n (%)
same,CBR,"[2]; overall, 3 study phases, n = 40",26%
same,Progressive disease,[2]; [11],29 (38%) n (%)
same,Stable disease,[2]; [11],32 (42%) n (%)
same,missing/unevaluable,[2]; [11],4 (5%) n (%)
same,non-complete response/non-progressive disease,[2]; [11],9 (12%) n (%)
same,partial responses,[2]; [11],3 (4%) n (%)
same,Progressive disease,[2]; [12],38%
same,Stable disease,[2]; [12],42%
same,missing/unevaluable,[2]; [12],5%
same,non-complete response/non-progressive disease,[2]; [12],12%
same,partial responses,[2]; [12],4%
same,CBR (responses or SD lasting ≥ 24 weeks),"[2]; phase Ia dose escalation, 16 patients",39%
same,Missing or unevaluable,[2]; phases Ib and IIa (n = 111),6 (5%) n (%)
same,"PD, best confirmed overall outcome",[2]; phases Ib and IIa (n = 111),49 (44%) n (%)
same,non-complete response or non-progressive disease (non CR/PD),[2]; phases Ib and IIa (n = 111),19 (17%) n (%)
same,CBR,"[2]; phases Ib combination treatments and IIa expansion cohorts (n = 111), n = 24",22%
same,CBR,"[2]; tumors harboring ESR1 mutations, phase Ib/IIa (8 of 54 patients)",15%
same,Missing or unevaluable,[2]; [13],1 (5%) n (%)
same,Non-complete response/non-progressive disease,[2]; [13],5 (26%) n (%)
same,Partial response,[2]; [13],0 n (%)
same,Progressive disease,[2]; [13],9 (47%) n (%)
same,Stable disease,[2]; [13],4 (21%) n (%)
same,Missing or unevaluable,[2]; [14],2 (22%) n (%)
same,Non-complete response/non-progressive disease,[2]; [14],0 n (%)
same,Partial response,[2]; [14],0 n (%)
same,Progressive disease,[2]; [14],4 (44%) n (%)
same,Stable disease,[2]; [14],3 (33%) n (%)
same,Missing or unevaluable,[2]; [15],1 (5%) n (%)
same,Non-complete response/non-progressive disease,[2]; [15],3 (15%) n (%)
same,Partial response,[2]; [15],1 (5%) n (%)
same,Progressive disease,[2]; [15],7 (35%) n (%)
same,Stable disease,[2]; [15],8 (40%) n (%)
same,Missing or unevaluable,[2]; [16],0 n (%)
same,Non-complete response/non-progressive disease,[2]; [16],1 (25%) n (%)
same,Partial response,[2]; [16],0 n (%)
same,Progressive disease,[2]; [16],2 (50%) n (%)
same,Stable disease,[2]; [16],1 (25%) n (%)
same,Missing or unevaluable,[2]; [17],0 n (%)
same,Non-complete response/non-progressive disease,[2]; [17],0 n (%)
same,Partial response,[2]; [17],2 (9%) n (%)
same,Progressive disease,[2]; [17],6 (26%) n (%)
same,Stable disease,[2]; [17],15 (65%) n (%)
same,Missing or unevaluable,[2]; [18],0 n (%)
same,Non-complete response/non-progressive disease,[2]; [18],0 n (%)
same,Partial response,[2]; [18],0 n (%)
same,Progressive disease,[2]; [18],1 (50%) n (%)
same,Stable disease,[2]; [18],1 (50%) n (%)
